Measured values as given in patent US6337336B1, “Azaindole derivatives for the treatment of depression” (American Home Products Corporation, priority 1999, dated 2002).
Counter-ions that a name gives are not always drawn.

Tests used:
5-HT1A cloned receptor = molecular target: T1, 5-HT1A cloned receptor (Homo sapiens, UniProt P08908); assay: [35S]-GTPγS binding assay; type: biochemical; conditions: relative to maximum agonist response defined by excess 8-OH-DPAT
T1 construct: expressed in transfected cells
T1 sequence (P08908 1-422): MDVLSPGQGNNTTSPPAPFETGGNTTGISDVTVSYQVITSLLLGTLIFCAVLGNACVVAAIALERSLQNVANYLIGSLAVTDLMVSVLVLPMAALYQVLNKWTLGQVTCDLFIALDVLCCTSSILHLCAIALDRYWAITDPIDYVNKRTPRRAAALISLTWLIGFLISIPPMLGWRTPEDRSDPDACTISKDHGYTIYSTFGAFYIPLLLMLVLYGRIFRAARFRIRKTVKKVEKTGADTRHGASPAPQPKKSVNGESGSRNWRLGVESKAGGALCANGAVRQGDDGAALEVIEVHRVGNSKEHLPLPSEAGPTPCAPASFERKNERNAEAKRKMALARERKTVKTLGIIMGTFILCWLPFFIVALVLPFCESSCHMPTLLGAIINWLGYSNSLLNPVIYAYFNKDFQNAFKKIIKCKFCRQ
Procedure: The [^35S]-GTPγS binding assay was similar to that used by Lazareno and Birdsall, Br. J. Pharmacol. 109:1120 (1993). Briefly, 5-HT1A cloned receptor membrane fragments (as used for 5-HT1A receptor binding assays) were stored at −70° C. When needed, membranes were rapidly thawed, centrifuged at 40,000×g for 10 minutes and resuspended at 4° C. for 10 minutes in assay buffer (25 mM HEPES, 3 mM MgCl2, 100 mM NaCl, 1 mM EDTA, 10 uM GDP, […], pH 8.0). These membranes were then incubated for 30 min at 30° C. with [^35S]GTPgS (1 nM) in the presence of vehicle, test compound (one to eight concentrations), or excess 8-OH-DPAT to define maximum agonist response. All reactions were terminated by the addition of ice cold Tris buffer followed by rapid filtration using a Tom Tech® filtration device to separate bound from free [^35S]GTPgS. Agonists produced an increase in the amount of [^35S]GTPgS bound whereas antagonists produced no increase in binding. Bound radioactivity was counted and analyzed as above.

human 5-HT1A receptor [1] = molecular target: T2, human 5-HT1A receptor (Homo sapiens, UniProt P08908); assay: human 5-HT1A receptor binding with [3H]8-OH-DPAT in CHO cell membranes
T2 sequence (P08908 1-422): T1 sequence (P08908 1-422)
Procedure: A stable Chinese hamster ovary cell line expressing the human 5-HT1A receptor subtype (5-HT1A.CHO cells) was employed throughout this study. Cells were maintained in DMEM supplemented with 10% fetal calf serum, non-essential amino acids and penicillin/ streptomycin.
Cells were grown to 95-100% confluency as a monolayer before membranes were harvested for binding studies. Cells were gently scraped from the culture plates, transferred to centrifuge tubes, and washed twice by centrifugation (2000 rpm for 10 min., 4° C.) in buffer (50 mM Tris; pH 7.5). The resulting pellets were aliquoted and maintained at −80° C. On the day of assay, the cells were thawed on ice, and resuspended in buffer. Studies were conducted using [^3H]8-OH-DPAT as the radioligand. The binding assay was performed in 96 well microtiter plates in a final total volume of 250 μL of buffer. Comparison experiments were performed by using 7 concentrations of unlabelled drug and a final ligand concentration of 1.5 nM. Non-specific binding was determined in the presence of 10 μM 5HT. Saturation analysis was conducted by using [^3H]8-OH-DPAT at concentrations ranging from 0.3-30 nM. Following a 30 minute incubation at room temperature, the reaction was terminated by the addition of ice cold buffer and rapid filtration using a M-96 Brandel Cell Harvester (Gaithersburg, MD) through a GF/B filter presoaked for 30 minutes in 0.5% polyethyleneimine.

serotonin transporter = molecular target: T3, serotonin transporter (Rattus norvegicus, UniProt P31652); assay: serotonin transporter affinity, 3H-paroxetine binding in rat frontal cortical membranes; conditions: 3H-paroxetine 0.1 nM, read-out: ST (Ki)
T3 construct: frontal cortical membranes prepared from male Sprague-Dawley rats; from tissue; host or cells: rat frontal cortex membranes (male Sprague-Dawley)
Procedure: A protocol similar to that used by Cheetham et al., Neuropharmacol., 32:737 (1993) was used to determine the affinity of compounds for the serotonin transporter. Briefly, frontal cortical membranes prepared from male Sprague-Dawley rats were incubated with ^3H-paroxetine (0.1 nM) for 60 min at 25° C. All tubes also contained either vehicle, test compound (one to eight concentrations), or a saturating concentration of fluoxetine (10 μM) to define […]. All reactions were terminated by the addition of ice cold Tris buffer followed by rapid filtration using a Tom Tech filtration device to separate bound from free ^3H-paroxetine. Bound radioactivity was quantitated using a Wallac 1205 Beta Plate® counter. Nonlinear regression analysis was used to determine IC50 values which were converted to Ki values using the method set forth in Cheng and Prusoff, Biochem. Pharmacol., 22:3099 (1973) (Ki=IC50/((Radioligand conc.)/(1+KD)).

human 5-HT1A receptor [2] = molecular target: T2, human 5-HT1A receptor; assay: forskolin-stimulated cAMP formation in 5-HT1A.CHO cells (cAMP SPA assay); type: cell-based; design: expressed in transfected cells; conditions: forskolin 1 uM
Procedure: The following assays were performed by incubating the cells with DMEM containing 25 mM HEPES, 5 mM theophylline and 10 μM pargyline for a period of 20 minutes at 37° C. Functional activity was assessed by treating the cells with forskolin (1 uM final concentration) followed immediately by test compound (6 concentrations) for an additional 10 min at 37° C. In separate experiments, 6 concentrations of antagonist were preincubated for 20 min prior to the addition of 10 nM 8-OH-DPAT and forskolin. The reaction was terminated by removal of the media and addition of 0.5 ml ice cold assay buffer. Plates were stored at −20° C. prior to assessment of cAMP formation by a cAMP SPA assay (Amersham).

T3 sequence (P31652 whole entry): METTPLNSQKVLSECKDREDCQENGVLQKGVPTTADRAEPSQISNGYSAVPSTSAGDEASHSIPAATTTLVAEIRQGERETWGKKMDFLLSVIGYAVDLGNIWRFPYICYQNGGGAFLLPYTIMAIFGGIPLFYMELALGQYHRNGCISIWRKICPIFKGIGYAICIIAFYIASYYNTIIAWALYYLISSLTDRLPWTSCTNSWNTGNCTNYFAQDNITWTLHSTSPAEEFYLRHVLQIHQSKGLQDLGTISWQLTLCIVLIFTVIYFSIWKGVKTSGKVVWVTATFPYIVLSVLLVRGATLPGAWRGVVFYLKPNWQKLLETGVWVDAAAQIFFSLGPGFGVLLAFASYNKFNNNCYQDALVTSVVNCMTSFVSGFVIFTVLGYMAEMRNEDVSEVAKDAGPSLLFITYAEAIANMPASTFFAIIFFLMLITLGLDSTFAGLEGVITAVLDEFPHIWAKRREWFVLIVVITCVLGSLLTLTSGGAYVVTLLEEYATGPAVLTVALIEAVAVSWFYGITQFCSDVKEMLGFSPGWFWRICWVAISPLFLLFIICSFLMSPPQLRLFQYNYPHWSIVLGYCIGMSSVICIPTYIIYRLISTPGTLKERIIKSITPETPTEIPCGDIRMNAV

SMILES	Emax (5-HT1A cloned receptor) [%]	Ki (human 5-HT1A receptor [1]) [nM]	Ki (serotonin transporter) [nM]	melting point [°C]	Emax (human 5-HT1A receptor [2]) [%]
C1=C(c2c[nH]c3ncccc23)CCN(CCOc2cccc3c2OCCO3)C1 [Example 1, 3-{1-[2-(2,3-Dihydro-benzo[1,4]dioxin-5-yloxy)-ethyl]-1,2,3,6-tetrahydro-pyridin-4-yl}-1H-pyrrolo[2,3-b]pyridine]	30	43.9	18		
C1=C(c2c[nH]c3ncccc23)CCN(CCOc2cccc3[nH]ccc23)C1 (as salt: oxalate) [Example 2, 3-{1-[2-(1H-Indol-4-yloxy)-ethyl]-1,2,3,6-tetrahydro-pyridin-4-yl}-1H-pyrrolo[2,3-b]pyridine]				106 to 109	
C1=C(c2c[nH]c3ncccc23)CCN(CCOc2cccc3[nH]ccc23)C1 [Example 2, 3-{1-[2-(1H-Indol-4-yloxy)-ethyl]-1,2,3,6-tetrahydro-pyridin-4-yl}-1H-pyrrolo[2,3-b]pyridine]	9	10.9	1.46		0
C1=C(c2c[nH]c3ncccc23)CCN(CCOc2cccc3c2OCCO3)C1 (as salt: oxalate) [Example 1, 3-{1-[2-(2,3-Dihydro-benzo[1,4]dioxin-5-yloxy)-ethyl]-1,2,3,6-tetrahydro-pyridin-4-yl}-1H-pyrrolo[2,3-b]pyridine]				164 to 167	
C1=C(c2c[nH]c3ncccc23)CCN(CCOc2cccc3ncccc23)C1 (as salt: oxalate) [Example 3, 5-{2-[4-(1H-Pyrrolo[2,3-b]pyridin-3-yl)-3,6-dihydro-2H-pyridin-1-yl]-ethoxy}-quinoline]				202 to 205	
C1=C(c2c[nH]c3ncccc23)CCN(CCOc2cccc3ncccc23)C1 [Example 3, 5-{2-[4-(1H-Pyrrolo[2,3-b]pyridin-3-yl)-3,6-dihydro-2H-pyridin-1-yl]-ethoxy}-quinoline]	0	71.6	6.89		0
